Measured values: patent US9067928B2 (Genentech, Inc., priority 2008, dated 2015)

Assays:
[1] = test system: Mcl-1-/- mouse embryonic fibroblasts (MEF); test: Cell viability assay for Mcl-1-/- mouse embryonic fibroblasts (CellTiter-Glo); type: cell-based; conditions: Fibroblast, 1% Fetal Bovine Serum, read-out: MEF Mcl-1-/- KO cell viability results (EC50)
Description: a. Cell Viability Assay for Mcl-1^−/− Mouse Embryonic Fibroblasts (MEF):
Neutralization of both […] and Mcl-1 anti-apoptotic proteins in normal cells is required before a cell undergoes apoptosis via the downstream Bax/Bak pathway See, Chen. L. et al. Mol. Cell (2005) 17, 393-403; Willis, S. N. et al. Genes Dev. (2005) 19, 1294-1305. A compound that only targets Bcl-xL should not affect normal cells, but could kill certain cancer cells if they rely more on Bcl-xL and less on other anti-apoptotic proteins, e.g. Mcl-1, for survival. To mirror this, compounds of the invention were tested for its effect on survival of wild type (wt) mouse embryo fibroblasts (MEFs), Bax/Bak double knockout (BB DKO) MEFs, MEFs that expressed Noxa, and MEFs that expressed Bad. Noxa specifically neutralizes Mcl-1. […] MEFs that express Noxa mirror cancer cell types that are reliant on Bcl-xL for survival and should be much more sensitive to killing by a Bcl-xL targeting compound than MEFs where both Bcl-xL and Mcl-1 are protective.
In this assay, Mcl-1^(−/−) cells were used to confirm that cell apoptosis in the presence of BH3 mimetic small molecules was due to predominantly Bcl-xL inactivation. This inactivation leaves Bax/Bak unconstrained and results in apoptosis. The […]-GLO Luminescent Cell Viability Assay is a homogeneous method of determining the number of viable cells in culture based on quantitation of the ATP present. The amount of ATP correlates with the presence of metabolically active cells such that following cell lysis the amount of ATP present is proportional to the amount of luminescence measured.
Mcl-1^(−/−) mouse embryonic fibroblasts (MEFs) are an adherent cell line prepared in house. MEFs were grown in Iwaki 75 cm^2 tissue culture flasks (cat #3123-075) with FMA media which consists of: • 89% DME Kelso • 10% heat-inactivated foetal calf serum (FCS) (Hyclone cat #SH30396.03) • 1% 10 mM asparagine (Fluka cat #11149) • 275 μl of a 1:2000 dilution of 2-mercaptoethanol is added to the final 500 ml volume of FMA (Sigma cat #M7522; diluted in MT-PBS)
FMA was stored at 4° C. and used at 37° C. MEFs were cultured in FMA media and harvested in MT-PBS and trypsin. For MEF cell viability assays, cells were seeded separately in plates with 10% FCS-FMA and 1% FCS-FMA. […]
Automated Systems that can be used in this assay include: 1) Multidrop—The MULTIDROP 384 (ThermoLabsystems) dispenser was used to dispense cells aseptically into the assay plates: 2) MiniTrak—The […] system from Perkin Elmer was used for titration of the compound plates; 3) Zymark—The ZYMARK SCICLONE ALH3000 System with 100 nL pintool head was used for compound addition to the cells; 4) EnVision—The ENVISION plate reader was used to measure the viability via the detection of the luminescence. […]

[2] = target: T1, Bcl-xL (Homo sapiens, UniProt Q07817); test: TR-FRET binding assay, competition with F-Bak for Bcl-xL binding site; conditions: GST-Bcl-xL, F-Bak probe
T1 construct: made in house
Protocol: The measurement of competition of compounds of the invention with F-Bak for a Bcl-2 family protein (Bcl-xL) binding site using a Time Resolved Fluorescence Resonance Energy Transfer (TR-FRET) Binding Assay:
Test compounds were serially diluted in DMSO starting at 50 μM (2× starting concentration; 10% DMSO) and 10 μL transferred into a 384-well plate.
The samples are then mixed on a shaker for 1 minute then incubated for an additional 2 hours at room temperature. For each assay plate, a probe/antibody and protein/antibody/probe mixture were included as a negative and a positive control, respectively. Fluorescence was measured on the Envision (Perkin Elmer) using a 340/35 nm excitation filter and 520/525 (F-Bak) and 495/510 nm (Tb-labeled anti-his antibody) emission filters. Dissociation constants (Ki) were determined using Wang's equation (see, Wang, Z. X. An exact mathematical expression for describing competitive binding of two different ligands to a protein molecule. FEBS Lett. 1995 360:111-114). The TR-FRET assay can be performed in the presence of varying concentrations of human serum (HS) or fetal bovine serum (FBS).

T1 sequence (Q07817 whole entry, species assumed): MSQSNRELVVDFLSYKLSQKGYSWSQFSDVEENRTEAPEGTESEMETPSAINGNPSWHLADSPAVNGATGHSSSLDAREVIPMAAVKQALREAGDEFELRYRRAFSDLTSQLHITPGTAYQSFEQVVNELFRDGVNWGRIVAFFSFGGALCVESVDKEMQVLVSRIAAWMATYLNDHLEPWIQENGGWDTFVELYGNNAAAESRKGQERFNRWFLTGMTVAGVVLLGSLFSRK

Question: `O=C(O)c1nc(-c2ccc3c(c2)N(C(=O)Nc2nc4ccccc4s2)CCC3)sc1-c1ccc(-c2ccccc2)cc1` [Example 92, 2-(1-(benzo[d]thiazol-2-ylcarbamoyl)-1,2,3,4-tetrahydroquinolin-7-yl)-5-(biphenyl-4-yl)thiazole-4-carboxylic acid] was tested. Which EC50 [1] did it give?
Answer: 150 nM

Question: What about the Ki [2] of the same compound?
Answer: 0.5 nM
